Measured values published in PubChem BioAssay (NCI).
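Each compound was tested at five concentrations against cells in 96-well plates for 48 hours. The concentration for full growth arrest is given as TGI.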

What was measured:
Assay in all cases: growth of human tumour cells (NCI), 48 h
LOX IMVI melanoma = tested on: LOX IMVI melanoma
MCF7 breast = tested on: MCF7 breast
OVCAR-4 ovarian = tested on: OVCAR-4 ovarian
CCRF-CEM leukemia = tested on: CCRF-CEM leukemia
SN12C renal = tested on: SN12C renal
SF-539 CNS = tested on: SF-539 CNS
SNB-75 CNS = tested on: SNB-75 CNS
A549 NSCLC = tested on: A549 NSCLC
SR leukemia = tested on: SR leukemia
HOP-92 NSCLC = tested on: HOP-92 NSCLC
MDA-N = tested on: MDA-N

| SMILES | TGI (LOX IMVI melanoma) [µM] | TGI (MCF7 breast) [µM] | TGI (OVCAR-4 ovarian) [µM] | TGI (CCRF-CEM leukemia) [µM] | TGI (SN12C renal) [µM] | TGI (SF-539 CNS) [µM] | TGI (SNB-75 CNS) [µM] | TGI (A549 NSCLC) [µM] | TGI (SR leukemia) [µM] | TGI (HOP-92 NSCLC) [µM] | TGI (MDA-N) [µM] |
| --- | --- | --- | --- | --- | --- | --- | --- | --- | --- | --- | --- |
| C=C(C)C(=O)CC[C@@H](C)[C@H]1[C@@H](OC2OC(CO)C(O)C(O)C2O)C[C@@]2(C)[C@@H]3C[C@H](O)C4C(C)(C)[C@@H](OC5OC(CO)C(O)C(O)C5O)CC[C@@]45C[C@@]35CC[C@]12C (stereo partly drawn) | > 100 | > 100 | > 100 | > 100 | > 100 | > 100 | > 100 | > 100 | > 100 | > 100 | 55.6 |
| CC(=O)NC1C(OCc2ccccc2)OC(CO)C(O)C1OCC(=O)NC(C)C(=O)NC(CCC(=O)NCCCCNc1ccc([N+](=O)[O-])c2[nH]c3ccccc3c(=O)c12)C(N)=O (stereo not drawn) | > 100 | > 100 | > 100 |  | > 100 | > 100 | > 100 | > 100 | > 100 | > 100 | > 100 |
| CC[C@@]1(O)C(=O)OCc2c1cc1n(c2=O)Cc2c-1nc1ccccc1c2/C=N\NC(=O)C(N)CC(C)C (stereo partly drawn) | 0.244 | > 100 | > 100 | 0.629 | 1.61 |  | < 0.0248 | 2.16 | < 0.0109 | 5.35 | > 100 |
| O=C1c2ccccc2C2CNC1(O)c1ccccc12 (stereo not drawn) | > 100 | > 100 | > 100 | > 100 | > 100 | > 100 | > 100 | > 100 | > 100 | > 100 | > 100 |
| O=C1Oc2ccccc2C(=O)/C1=C/N1C(=O)N/C(=C\c2ccccc2O)C1=O | > 100 | > 100 | > 100 | > 100 | > 100 | > 100 | > 100 | > 100 | > 100 | > 91 | > 100 |
| O=C(Cn1c(=O)oc2ccc(C(=O)c3ccc(F)cc3)cc21)c1ccc([N+](=O)[O-])cc1 | > 100 | > 100 | > 100 | > 100 | > 100 | > 100 | > 100 | > 100 | > 100 | > 100 | 60.9 |
| C=CCNC(=S)Nc1sc2c(c1C(=O)OCC)CC(C)CC2 (stereo not drawn) | > 100 | 45.4 | > 100 |  | 82.8 |  | 64.7 | 60.8 | 53.6 | > 100 | > 100 |
| O=C1c2c(F)c(F)c(F)c(F)c2SC2=NCCN12 | 3.07 | 23.5 | 8.91 | > 21.6 | 21.8 | 30 | 29.9 | 30.1 | 4.45 | 9.19 | 11.9 |
| OCCOc1ccc(-c2cc(-c3ccccn3)nc(-c3ccccn3)c2)cc1 | 6.43 | > 100 | > 100 | 40.4 | > 100 | 2.26 | 26.1 | > 39.5 | 11.7 | > 100 | > 100 |
| O=C1C(N2CCCC2)=CC(=O)c2c(O)c(N3CCCC3)c(Cl)c(O)c21 | > 10 | > 10 | > 10 | > 10 | > 10 | > 10 | > 10 | > 10 | > 10 | > 10 | > 10 |
| CN1C/C(=C\c2cccs2)C2=NC(=S)NC(c3cccs3)C2C1 (stereo not drawn) | > 100 | > 100 | > 100 | 53.5 | > 100 |  |  | > 100 | 54.2 | > 100 | > 100 |
| CC[n+]1cnc(N)c2c(-c3ccc(Cl)cc3)cn(-c3ccc(C)cc3)c21 | 25.9 | 3.35 | 15.6 | 22.7 | 25.2 | 28.5 | 14.1 | 25.7 | 19.1 | 24.7 | 25 |
| O=C1C2CCCCC2C(=O)N1n1c(Cc2ccc(Cl)cc2)n[nH]c1=O (stereo not drawn) | > 100 | > 100 | > 100 | > 100 | > 100 | > 100 | > 100 | > 100 | > 100 | > 100 | > 100 |
| CCOC(=O)CCCn1nnc(C(=O)OCC)c1C(=O)OCC | > 100 | > 100 | > 100 | > 100 | > 100 | > 100 | > 100 | > 100 | > 100 | > 100 | > 100 |
| COCOc1ccc(C(=O)C(C)c2ccc(OCOC)cc2OCOC)c(O)c1 (stereo not drawn) |  | > 100 | > 100 | > 100 | > 100 | > 100 | > 100 | > 100 | > 100 | > 100 | > 100 |
| O=C(c1ccccc1)c1ccc2c(c1)nc1n2C(c2c(Cl)cccc2Cl)SC1 (stereo not drawn) | > 100 | > 100 | > 100 |  | > 100 | > 100 | > 100 | > 100 | > 100 | > 100 | > 100 |
| C=CCC1(O)c2ccccc2C(=O)c2c(O)ccc(O)c21 (stereo not drawn) | > 50.9 | 26.3 | > 82.5 | 56.7 | 56.4 | > 33.7 | 25.3 | > 87.3 | > 69.8 | 41.1 | 5.15 |
| O=C1CSC2(CC(/C=C/c3ccccc3)=NN2c2cccc(S(=O)(=O)O)c2)N1c1nc2ccccc2s1 (stereo not drawn) | 23.7 | 45 | 54.1 | 49.5 | 71.2 | > 100 | 59.2 | > 100 | 61 | 77.3 | > 100 |
| CN(C)c1nc2sc3c(c2c(=O)o1)CCCC3 | > 100 | > 100 | > 100 | > 100 | > 100 | > 100 | 95.2 | > 100 | > 100 | > 100 | > 100 |
| COC(=O)c1c2c(cc3c1CC1(Cc4ccccc4C1=O)C3)CCC2 (stereo not drawn) | > 100 | > 100 | > 100 | > 100 | > 100 | > 100 | > 100 | > 100 | 58.5 | > 100 | 34.2 |
| Nc1nc(Cl)cc(NCC2(O)CC(CO)C2)n1 (stereo not drawn) | > 100 | > 100 | > 100 | > 100 | > 100 | > 100 | > 100 | > 100 | > 100 | > 100 | > 100 |
| C1=C\SS/C=C\SS/C=C\SS/C=C\SS/1 | > 100 | > 100 | > 100 | 61.9 | > 100 |  |  | > 100 | > 100 | > 100 | > 100 |
| OCC1OC(c2scc3c(=S)nc[nH]c23)C(O)C1O (stereo not drawn) | > 82.5 | 27.3 | 38.1 | > 100 | > 100 | 57.6 | 30.5 | > 100 | > 100 | 6.92 | > 100 |
| Nc1nc2c(=O)c3ccccc3sc2s1 | > 100 | > 100 |  | > 100 | > 100 | 48.2 | > 100 | > 100 | > 100 | > 100 | > 100 |
| O=C1c2ccccc2C(=O)N1n1c(Cc2ccccc2)n[nH]c1=O | > 100 | > 100 | > 100 | > 100 | > 100 | > 100 | > 100 | > 100 | > 100 | > 100 | > 100 |
| O=C(Cc1ccccc1)NCCc1ccc(O)c(O)c1 | > 100 | > 100 | 28 | 24.3 | > 100 | > 100 | > 100 | > 100 | 73.3 | > 100 | 34.9 |
| CCOC(=O)c1cccc(NC(=O)CCl)c1 | 3.89 | 6.81 | 8.31 | 10.6 | 4.6 | 5.78 | 9.22 | 29.8 | 7.46 | 16.9 | 14.7 |
| CCc1nn(CN2CCN(C)CC2)c(=S)n1/N=C\c1ccc(-c2ccc([N+](=O)[O-])cc2)o1 | > 100 | > 100 | > 100 | > 100 | > 100 |  |  | > 100 | > 100 | > 100 | > 100 |
| CCC(C)[C@@H](NCc1ccccc1)[C@H](OCc1ccccc1)[C@@H]1COC(C)(C)O1 (stereo partly drawn) | 38 | 44.4 | > 100 | 60.9 | 49 |  | > 100 | 78.8 | 60.5 | 31.4 | > 100 |
| CC1=NN(c2nc(N)nc(-c3ccccc3S(N)(=O)=O)n2)C(C)(C)C1 | > 100 | > 100 | > 100 | > 100 |  | > 100 |  |  | 68.5 | > 100 | > 100 |
